{"source": "patent US8530453B2", "about": "“Compounds and methods for the treatment of pain and other diseases” (Aquilus Pharmaceuticals, Inc., priority 2009, dated 2013)", "key": {"[1]": {"tested_on": "chronic constriction injury (CCI)-mouse model", "conditions": "epineural daily injections, after the third day; cited from earlier work"}, "humans": {"tested_on": "humans", "conditions": "clinical; cited from earlier work"}, "[2]": {"tested_on": "spinal nerve ligation (SNL) mouse model, mechanical allodynia", "test": "Intraperitoneal (i.p.) administration in the SNL mouse model of pain, von Frey tactile allodynia test", "assay_type": "in vivo", "text": "To measure the neuropathic pain inhibiting affects of the MMP inhibitors of the present invention, the spinal nerve ligation (SNL) mouse model was run on a select number of compounds. This model which began with the work of Bennet and coworkers (Bennet, G. J. et al. Pain, 33, (1988), 87-107) and was optimized by Kim and Chung (Kim, S. H.; Chung, J. M. Pain, 50, (1992), 355-363) entails first, under magnification, the removal of one-third of the transverse process and then identifying and then dissecting free the L5 spinal nerve from the adjacent L4 spinal nerve in the mouse. The L5 spinal nerve is then tightly ligated using 6.0 silk suture. The nerve injury leads to hyperalgesia which manifests itself by enhanced responses to mechanical, heat and/or cooling stimuli. In this case, mechanical hyperalgesia is tested via Von Frey monofilaments in which filaments of varying thicknesses and bending force are individually applied to the plantar surface of the foot of the mouse. […]\n(§1) Tactile Allodynia Test. Mechanical allodynia was measured using the calibrated von Frey filaments (Semmes-Weinstein monofilaments; Stoelting, Wood Dale, Ill., U.S.A.). […] The Fifty percent paw withdrawal threshold response was determined by sequentially increasing or decreasing the stimulus strength according to the “up-down method” of Dixon (Annual Review Pharmacology Toxicology, 20, (1980), 441-462). […]"}, "[3]": {"target": "Catalytic domain of MMP-9 (human recombinant) (Homo sapiens, UniProt P14780)", "sequence (P14780 107-444 limits assumed)": "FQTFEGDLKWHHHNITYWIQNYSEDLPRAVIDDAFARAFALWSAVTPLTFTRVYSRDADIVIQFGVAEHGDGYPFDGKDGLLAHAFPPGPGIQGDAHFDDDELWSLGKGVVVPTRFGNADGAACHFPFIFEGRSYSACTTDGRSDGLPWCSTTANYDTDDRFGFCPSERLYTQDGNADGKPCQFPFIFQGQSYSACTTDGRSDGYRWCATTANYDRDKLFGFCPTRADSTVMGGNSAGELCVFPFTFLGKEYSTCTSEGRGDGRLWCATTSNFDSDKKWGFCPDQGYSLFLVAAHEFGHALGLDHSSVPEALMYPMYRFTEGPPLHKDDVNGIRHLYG", "test": "biochemical", "conditions": "read-out: Average Percent Inhibition (MMP-9)", "description": "A concentration of MMP inhibitor of the present invention was tested (1 microMolar) in duplicate runs. […] The mixture of enzyme and compound in assay buffer was then thoroughly mixed and incubated for 60 minutes at 37° C. Upon the completion of incubation, the assay was started by the addition of 10 μM of fluorescent substrate DNP-Pro-Cha-Gly-Cys(Me)-His-Ala-Lys(n-Me-Abz)-NH2 [SEQ ID NO: 1][Cha=β-cyclohexylalanyl; Abz=2-aminobenzoyl(anthraniloyl)] (Kd˜7 microMolar). The fluorescent product, DnpPChaG, was then measured at excitation of 365 nm and emission 450 nm by an automatic plate multireader at 37° C."}, "[4]": {"test": "In-vitro mouse microsomal stability", "assay_type": "in vitro ADME", "conditions": "compound 1 microMolar, at T = 60 minutes; for % Mean Remaining Parent with NADPH (%): mouse microsomes 0.3 mg/mL, 37 C; for % Mean Remaining Parent without NADPH (%): mouse microsomes, control omitting NADPH", "method": "Human and mouse microsomal stability was determined for select compounds following the method of Houston (Houston, J B; Biochem. Pharmacol. 47, (1994), 1469).\n1 μM concentration of compound and seperate human and mouse microsomes (0.3 mg/mL, BD bioscience) were used in the in-vitro assay. To ensure proper energy supply for microsomal degradation of compound, an energy regenerating system comprised of 100 mM potassium phosphate, 2 mM NADPH, 3 mM MgCl2, pH=7.4. and the microsomal protein is added to each sample and the resulting suspension is then incubated in duplicate for 60 min at 37° C. in a rotary shaker. A control is run for each test agent in duplicate omitting NADPH to detect NADPH-free degradation. At T=0 and T=60 min., an aliquot is removed from each experimental and control reaction and then mixed with an equal volume of ice-cold Stop Solution (consisting of 0.3% acetic acid in acetonitrile containing haloperidol and diclofenac as internal standards). Stopped reactions are then incubated for at least ten minutes at −20° C., and an additional volume of water is then be added. The samples are then centrifuged to remove precipitated protein, and the supernatants are then analyzed by LC-MS/MS to determine the percentage of compound remaining. The LC-MS/MS system used was an Agilent 6410 mass spectrometer coupled with an Agilent 1200 HPLC and a CTC PAL chilled autosampler, all controlled by MassHunter software (Agilent), or an ABI2000 mass spectrometer coupled with an Agilent 1100 HPLC and a CTC PAL chilled autosampler, all controlled by Analyst software (ABI). After separation on a C18 reverse phase HPLC column (Agilent, Waters, or equivalent) using an acetonitrile-water gradient system, peaks were analyzed by mass spectrometry (MS) using ESI ionization in MRM mode."}, "[5]": {"tested_on": "spinal nerve ligation (SNL) mouse model, mechanical allodynia", "test": "Intrathecal (i.t.) administration in the SNL mouse model of pain, von Frey tactile allodynia test", "assay_type": "in vivo", "conditions": "for 50% paw withdrawal threshold, mean, Day (-2) Pre-operative Baseline: group baseline prior to SNL injury, before treatment, FVB male mice", "text": "To measure the neuropathic pain inhibiting affects of the MMP inhibitors of the present invention, the spinal nerve ligation (SNL) mouse model was run on a select number of compounds. This model which began with the work of Bennet and coworkers (Bennet, G. J. et al. Pain, 33, (1988), 87-107) and was optimized by Kim and Chung (Kim, S. H.; Chung, J. M. Pain, 50, (1992), 355-363) entails first, under magnification, the removal of one-third of the transverse process and then identifying and then dissecting free the L5 spinal nerve from the adjacent L4 spinal nerve in the mouse. The L5 spinal nerve is then tightly ligated using 6.0 silk suture. The nerve injury leads to hyperalgesia which manifests itself by enhanced responses to mechanical, heat and/or cooling stimuli. In this case, mechanical hyperalgesia is tested via Von Frey monofilaments in which filaments of varying thicknesses and bending force are individually applied to the plantar surface of the foot of the mouse. The threshold force necessary for paw withdrawal decreases dramatically after the nerve surgery. Potent pain inhibitors will reverse this affect resulting in greater force needing to be applied to cause the rodent paw to withdrawal.\nFollowing preoperative baseline (Day −2) paw threshold measurement, FVB male mice were subjected to SNL injury (Day −1). […] Over the course of the study, paw withdrawal threshold of these animals was measured in response to mechanical stimulation using the von Frey Monofilament Test. […]\nas §1"}, "mechanical nociception": {"tested_on": "mechanical nociception", "conditions": "in vivo; cited from earlier work"}}}
{"compound": "CC(C)C[C@H](CC(=O)NO)C(=O)N[C@@H](Cc1ccc2ccccc2c1)C(=O)N[C@@H](C)C(N)=O", "note": "[TAPI-0]", "values": [{"measurement": "Effect on mechanical allodynia and thermal hyperalgesia (in words)", "setting": "[1]", "value": "able to block both mechanical allodynia and thermal hyperalgesia"}]}
{"compound": "CNC(=O)[C@@H](NC(=O)[C@H](CC(C)C)[C@H](O)C(=O)NO)C(C)(C)C", "note": "[Marimastat]", "values": [{"measurement": "Toxicities in humans (in words)", "setting": "humans", "value": "time-dependent and dose-dependent musculoskeletal toxicities (arthralgia, myalgia, tendinitis)"}]}
{"compound": "[2H]C([2H])([2H])c1ccc(C#Cc2ccc(S(=O)(=O)N[C@H](Cc3c[nH]c4ccccc34)C(=O)O)s2)cc1", "note": "[Compound 10, (R)-3-(1H-Indol-3-yl)-2-[5-(4-trideuteromethyl-phenylethynyl)-thiophene-2-sulfonylamino]-propionic acid-(D3, 98%)]", "values": [{"measurement": "Reversal of mechanical allodynia (in words)", "setting": "[2]; i.p. approx. 3.3 mg/Kg daily", "value": "complete reversal of mechanical alodynia by day 5"}, {"measurement": "Duration of effect after last injection (in words)", "setting": "[2]; i.p., 48 hours (day 6) from the last injection (day 4)", "value": "rather prolonged effect"}, {"measurement": "inhibition at 1 µM", "setting": "[3]", "value": 78, "unit": "%"}, {"measurement": "% Mean Remaining Parent with NADPH (%)", "setting": "[4]", "value": 85, "unit": "%"}, {"measurement": "% Mean Remaining Parent without NADPH (%)", "setting": "[4]", "value": 91, "unit": "%"}, {"measurement": "50% paw withdrawal threshold, mean, Day (-2) Pre-operative Baseline", "setting": "[5]", "value": 1.268, "unit": "g"}, {"measurement": "Reversal of allodynia (in words)", "setting": "[5]; i.t., as compared to vehicle and compound #5", "value": "almost complete reversal of allodynia"}]}
{"compound": "Cc1ccc(C#Cc2ccc(S(=O)(=O)N[C@H](Cc3c[nH]c4ccccc34)C(=O)O)s2)cc1", "note": "[Compound 5, (R)-3-(1H-Indol-3-yl)-2-(5-p-tolylethynyl-thiophene-2-sulfonylamino)-propionic acid]", "values": [{"measurement": "% Mean Remaining Parent with NADPH (%)", "setting": "[4]", "value": 83, "unit": "%"}, {"measurement": "% Mean Remaining Parent without NADPH (%)", "setting": "[4]", "value": 88, "unit": "%"}, {"measurement": "50% paw withdrawal threshold, mean, Day (-2) Pre-operative Baseline", "setting": "[5]", "value": 1.265, "unit": "g"}]}
{"compound": "CNC(=O)[C@H](Cc1c[nH]c2ccccc12)NC(=O)[C@@H](CC(=O)NO)CC(C)C", "note": "[GM6001]", "values": [{"measurement": "Effect on mechanical nociception (in words)", "setting": "mechanical nociception", "value": "found to attenuate mechanical nociception"}]}
